Data on twelve compounds can be found in PubChem BioAssay (NCI).

Each structure is given as a SMILES string. Where “and” joins values, the source holds several entries; their conditions need not be identical. Identical values can stand only once.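 Interpolation was linear, between the two tested concentrations surrounding the appropriate level; five concentrations were tested over 48 hours in 96-well plates. Here, GI50 denotes the concentration required for 50% inhibition of growth. Definition used: TGI = concentration required for complete inhibition of growth.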

Holding throughout (assay): DTP human tumour cell line panel, 48 h
Test [1] relates to UO-31 renal.
In test [2] the test system is U251 CNS.
The test system of test [3] is A549 NSCLC.
Test [4] has as its system SW-620 colon.
For test [5], the system named is A498 renal.
Test [6] has as its system OVCAR-5 ovarian.
For test [7], the system named is HCC-2998 colon.
Test [8] deals with SK-MEL-28 melanoma.
For test [9], the system named is M14 melanoma.
The test system of test [10] is HCT-116 colon.
The test system of test [11] is MOLT-4 leukemia.
For test [12], the system named is SF-295 CNS.

A word on the TGI: it is the concentration at which net growth stops. `N#C/C(c1nc2ccccc2[nH]1)=c1\s/c(=C/c2ccccc2)c(=O)n1-c1ccccc1`: the TGI in test [1], in test [2], in test [3], in [4], in test [5] and in test [6] was more than 100 µM each time. Moreover, the TGI in test [7], in [8], in test [9], in test [10] and in [11] was more than 100 µM each time.

As to `CC(=O)OCC12CC(CC1OC(C)=O)c1ccccc12` (centres undefined), the TGI in test [1], in test [2], in test [12], in test [3], in test [4] and in test [5] was more than 100 µM in each case. Further, the TGI in [6], in test [7], in [8], in test [9], in test [10] and in test [11] was more than 100 µM each time.

For the compound `CCOC(=O)C(C)NC(=O)NC12CC3CC(CC(F)(C3)C1)C2` (centres undefined), the TGI in [1], in test [2], in [3], in [4], in [5] and in test [6] was more than 100 µM throughout. For the same compound, the TGI in test [7], in test [8], in test [9], in test [10] and in test [11] was more than 100 µM throughout.

For `O=C(NC(CS)C(=O)O)c1c2ccccc2nc2ccccc12` (centres undefined), the TGI in test [1] is 43 µM; in test [2], more than 100 µM; in [12] it was more than 100 µM; in test [3], more than 100 µM; in test [4], more than 100 µM; in [5], more than 100 µM. Further, the TGI in test [6], in test [7], in test [8], in test [9], in [10] and in test [11] was more than 100 µM throughout.

For the compound `CC1(O)CC2C(CC1SC1CC3C(CC1(C)O)C3(C)C)C2(C)C` (centres undefined), the TGI in [1], in test [2], in test [12], in test [3], in [6] and in test [7] was more than 100 µM each time. In addition, the TGI in test [8], in test [9], in test [10] and in test [11] was more than 100 µM each time.

Take `COc1cccc(C2=NC(C(C)C)CO2)c1OC` (centres undefined): the TGI in test [1], in [12], in test [3], in test [4], in test [5] and in [6] was more than 100 µM in each case. The TGI in test [7], in test [8], in test [9] and in test [11] was more than 100 µM throughout.

As for `COc1cc(/C=C2\CCC(C)C3=C2N=c2s/c(=C/c4ccc(Cl)cc4)c(=O)n2C3c2cc(OC)c(OC)c(OC)c2)cc(OC)c1OC` (centres undefined), the TGI in test [1], in test [2], in test [3], in test [4], in test [5] and in test [6] was more than 100 µM in each case. Moreover, the TGI in test [8], in [9], in test [10] and in [11] was more than 100 µM throughout.

As to `O=C1C(Cl)C(c2ccccc2Cl)N1n1cnc2ccccc2c1=O` (centres undefined), the concentration for total growth inhibition (TGI) in test [1] is 73.2 µM; in [2] it was more than 100 µM; in test [12] it was more than 100 µM; in test [3], more than 100 µM; in [4], more than 100 µM; in [6], more than 100 µM. Besides, the TGI in test [7], in test [8], in test [9], in test [10] and in test [11] was more than 100 µM in each case.

Regarding `Cc1ccc(NC(=O)C2C3C=CC(O3)C2C(=O)O)cc1` (centres undefined), the total growth inhibition concentration (TGI) in test [1] is more than 100 µM; in test [2], more than 100 µM; in test [12], more than 100 µM; in test [3], more than 100 µM; in test [4], 26.8 µM; in [5], more than 100 µM. The TGI in test [6], in test [7], in [8], in test [9], in test [10] and in [11] was more than 100 µM throughout.

As for `N#CC(NNC(=O)Cc1ccccc1)c1ccc([N+](=O)[O-])cc1` (centres undefined), the TGI in test [1], in test [2], in test [12], in test [3], in [4] and in [6] was more than 100 µM in each case. Also, the TGI in [8], in test [9], in test [10] and in test [11] was more than 100 µM throughout.

As usually defined, the GI50 is the concentration giving 50% growth inhibition. In the case of `COc1cc2c(c(OC)c1OC)-c1ccc(SC)c(=O)cc1[C@@H](NC(=O)c1cccc([N+](=O)[O-])c1)CC2`, the GI50 in test [1] was 0.0276 µM; in test [3], 0.033 µM; in test [8], 10.5 µM. Besides, the TGI in [1] is more than 100 µM; in [2], 0.0577 µM; in [3] it was 23.1 µM; in [4], more than 100 µM; in [5] it was 0.0479 µM; in [6], more than 100 µM. Moreover, the TGI in test [7] is 0.0497 µM; in [8], 82.3 µM; in test [10] it was 0.0439 µM and 0.117 µM; in [11], more than 100 µM.

As for `CC(C)N(C(=O)C12C3C4C5C3C1(C(=O)O)C5C42)C(C)C` (centres undefined), the TGI in [1], in test [2], in test [12], in test [3], in test [4] and in test [5] was more than 100 µM in each case. Besides, the TGI in test [6], in [7], in test [8], in test [9], in test [10] and in test [11] was more than 100 µM throughout.
